Data as given in US20110177105A1, “Novel Selective Inhibitors of Ubiquitin Specific Protease 7, the Pharmaceutical Compositions Thereof and Their Therapeutic Applications” (priority 2010, published 2011).

Molecular target: USP7 (Homo sapiens, UniProt Q93009)
Test: HA-Ub-VS labeling of active DUBs in HCT116 cell lysates
Type: biochemical
Parameters: endogenous in cells; host or cells: HCT116 (inducible USP7 shRNA line) cell lysate
Settings: NEM 5 mM
Excerpt: The C-terminally modified vinyl sulfone derivative of ubiquitin, UbVS, was clearly helpful for a direct visualization of active DUBs in cells. This tool, which binds covalently to the cysteine active site of deubiquitinating enzymes, was successfully applied to discover and characterize novel ubiquitin/ubiquitin-like proteases and to profile active deubiquitinating enzymes in normal, virus-infected, and malignant cells (Borodovsky et al., Chem Biol 2002, 9, 1149-1159, Hemelaar et al., Mol Cell Biol 2004, 24, 84-95, Ovaa et al., Proc Natl Acad Sci USA 2004 101, 2253-2258).
The HA-Ub-VS probe (Hemagglutin tag-Ubiquitin-Vinyl Sulfone) was used in this study to directly visualize the activity of all deubiquitinating enzymes from cell lysates. This tool was used to evaluate the activity/specificity of our small molecule compounds on USP7 relative to all deubiquitinating enzymes active in physiological conditions.
Inducible USP7 shRNA HCT116 cells (previously treated with or without Doxycycline (2 μg/ml) for 4 days) as well as HEK293 cells were harvested and lysed on ice with a non denaturating buffer containing Tris pH 7.4, 50 mM; NaCl, 150 mM; MgCl2, 5 mM; EDTA, 0.5 mM; DTT, 2 mM; ATP, 2 mM; NP40, 0.5% and glycerol, 10%. Samples were incubated at 4° C. for 1 hour and clarified. Proteins were then quantified by Bradford method (Bio-Rad Protein Assay). 25 μg of proteins from native cell lysates were treated with compounds of examples 14 and 5 (from 100 μM to 3 μM) or with NEM (N-Ethylmaleimide, a thiol-reactive compound, 5 mM) for 2 hours at room temperature. The ubiquitin labeling reaction was initiated by the addition of HA-Ub-VS (8 μg/ml) in labeling buffer (Tris pH 7.6, 50 mM; MgCl2, 5 mM; EDTA, 0.5 mM; DTT, 2 mM; ATP, 2 mM; sucrose, 250 mM) and incubated at room temperature for 30 min. Samples were next heated at 100° C. for 10 minutes and briefly sonicated. They were resolved by SDS-polyacrylamide gel electrophoresis (SDS-PAGE), transferred to a nitrocellulose membrane and probed with antibodies against USP7 (Bethyl Lab, A300-034A), HA (BabCO, MMS-101P), and actin (Sigma, A2066). Horseradish peroxidase (HRP)-conjugated anti-mouse (Jackson Laboratories, 115-035-003) or HRP-conjugated anti-rabbit (Cell Signaling, 7074) antibodies were used as secondary antibodies. Signals were detected by enhanced chemiluminescence (ECL; Amersham) according to the reagent manufacturer's instructions.

USP7, sequence (Q93009 whole entry): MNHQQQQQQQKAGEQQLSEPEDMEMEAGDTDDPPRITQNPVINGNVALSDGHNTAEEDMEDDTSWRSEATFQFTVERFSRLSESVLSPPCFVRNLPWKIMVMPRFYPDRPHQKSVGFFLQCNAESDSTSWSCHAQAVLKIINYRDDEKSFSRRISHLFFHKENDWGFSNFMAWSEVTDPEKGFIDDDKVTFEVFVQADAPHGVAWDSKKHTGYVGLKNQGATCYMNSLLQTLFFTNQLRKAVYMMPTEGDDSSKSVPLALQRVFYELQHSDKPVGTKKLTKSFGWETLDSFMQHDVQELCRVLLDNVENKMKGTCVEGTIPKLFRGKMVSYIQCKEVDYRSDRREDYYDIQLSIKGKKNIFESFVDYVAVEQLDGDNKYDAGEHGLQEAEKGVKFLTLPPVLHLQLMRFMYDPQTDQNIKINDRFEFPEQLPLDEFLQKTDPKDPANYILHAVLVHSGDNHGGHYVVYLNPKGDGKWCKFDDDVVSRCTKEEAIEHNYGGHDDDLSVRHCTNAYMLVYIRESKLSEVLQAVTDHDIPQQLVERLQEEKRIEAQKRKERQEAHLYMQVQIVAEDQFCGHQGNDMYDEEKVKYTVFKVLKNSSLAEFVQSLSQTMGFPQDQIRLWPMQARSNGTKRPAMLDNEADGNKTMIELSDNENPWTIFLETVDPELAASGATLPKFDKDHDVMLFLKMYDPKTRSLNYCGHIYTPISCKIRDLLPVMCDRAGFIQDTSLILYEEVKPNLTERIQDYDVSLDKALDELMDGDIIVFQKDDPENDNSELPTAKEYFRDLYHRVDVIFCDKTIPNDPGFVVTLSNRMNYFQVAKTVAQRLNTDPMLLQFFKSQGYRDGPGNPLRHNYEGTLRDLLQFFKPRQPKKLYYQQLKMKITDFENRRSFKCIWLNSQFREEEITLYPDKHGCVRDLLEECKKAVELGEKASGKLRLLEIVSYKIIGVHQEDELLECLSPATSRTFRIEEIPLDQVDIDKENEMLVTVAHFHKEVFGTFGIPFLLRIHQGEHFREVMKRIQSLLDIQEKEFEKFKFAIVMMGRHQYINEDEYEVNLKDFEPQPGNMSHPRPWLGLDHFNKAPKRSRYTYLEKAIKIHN

## CCN1C(=O)C=CC1=O [NEM, N-Ethylmaleimide, reference compound]
  HA-Ub-VS labeling of active DUBs: inhibited
